The term IC50 denotes the concentration that inhibits the measured activity by half. High values mean a need for much substance, low ones inhibition by little substance.

From ChEMBL document CHEMBL5726833, “Heterocyclic compounds useful as pim kinase inhibitors” (2018) come the findings set out here.

For test [1], the target named is Serine/threonine-protein kinase pim-1 (Homo sapiens, UniProt P11309). In words: (§1) Enzyme Assay: Pim-1 and Pim-3 kinase assays—20 μL reactions were run in white 384 well polystyrene plates dotted with 0.8 μL compound/DMSO in the assay buffer (50 mM Tris, pH 7.5, 0.01% Tween-20, 5 mM mgCl2, 0.01% BSA, 5 mM DTT), containing 0.05 μM Biotin-labeled BAD peptide substrate (AnaSpec 62269), 1 mM ATP, and 2.5 pM (Pim-1, Invitrogen PV3503) or 1.25 pM (Pim-3, Millipore 14-738) enzyme for 1 h at 25° C. Reactions were stopped by addition of 10 μL STOP Buffer (150 mM Tris, pH=7.5, 150 mM NaCl, 75 mM EDTA, 0.01% Tween-20, 0.3% BSA,) supplemented with Phospho-Bad (Ser112) Antibody (Cell Signaling 9291) diluted 666-fold, and Streptavidin donor beads (PerkinElmer 6760002) along with Protein-A acceptor beads (PerkinElmer 6760137) at […] each. Supplementation of the STOP buffer with beads and stopping the reactions were done under reduced light. Prior to the stopping reactions STOP buffer with beads was preincubated for 1 h in the dark at room temperature. After stopping the reactions, plates were incubated for 1 h in the dark at room temperature before reading on a PHERAstar FS plate reader (BMG Labtech) under reduced light.
Sequence of Serine/threonine-protein kinase pim-1 (P11309 whole entry): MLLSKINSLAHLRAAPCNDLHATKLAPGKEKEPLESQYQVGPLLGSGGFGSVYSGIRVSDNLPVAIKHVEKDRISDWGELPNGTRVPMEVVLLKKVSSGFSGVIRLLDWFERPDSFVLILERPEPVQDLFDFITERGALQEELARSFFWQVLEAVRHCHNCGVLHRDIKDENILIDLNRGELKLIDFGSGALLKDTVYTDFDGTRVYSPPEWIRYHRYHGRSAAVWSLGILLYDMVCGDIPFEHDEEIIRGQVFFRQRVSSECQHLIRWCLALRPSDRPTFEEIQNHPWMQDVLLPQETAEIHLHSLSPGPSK

Test [2] deals with Serine/threonine-protein kinase pim-3 (Homo sapiens, UniProt Q86V86). Described as §1.
The target in test [3] is Serine/threonine-protein kinase pim-2 (Homo sapiens, UniProt Q9P1W9). The test can be described thus: Kinase Assay: Pim-2 kinase assay—20 μL reactions were run in white 384 well polystyrene plates dotted with 0.8 μL compound/DMSO in the assay buffer (50 mM Tris, pH 7.5, 0.01% Tween-20, 5 mM mgCl2, 0.01% BSA, 5 mM DTT), containing 0.05 μM Fluorescein-labeled CREBtide peptide substrate (Invitrogen PV3508), 1 mM ATP, and 1 nM enzyme (Invitrogen PV3649) for 2 h at 25° C. Reactions were stopped by addition of 10 μL TR-FRET Dilution Buffer (Invitrogen PV3574) with 30 mM EDTA and 1.5 nM LanthaScreen Tb-CREB pSer133 antibody (Invitrogen PV3566). After 30 min. incubation at room temperature, plates were read on a PHERAstar FS plate reader (BMG Labtech).
Sequence of Serine/threonine-protein kinase pim-2 (Q9P1W9 whole entry): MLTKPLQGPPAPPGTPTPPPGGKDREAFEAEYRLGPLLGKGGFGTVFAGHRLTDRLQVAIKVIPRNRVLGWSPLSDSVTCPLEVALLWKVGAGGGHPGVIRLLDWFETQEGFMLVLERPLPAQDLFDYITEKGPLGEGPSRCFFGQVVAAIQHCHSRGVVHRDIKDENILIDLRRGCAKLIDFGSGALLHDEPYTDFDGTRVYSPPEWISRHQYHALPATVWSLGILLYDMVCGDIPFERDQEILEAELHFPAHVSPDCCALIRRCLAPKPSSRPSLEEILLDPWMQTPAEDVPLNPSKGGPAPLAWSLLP

Take `C[C@@H]1C[C@H](N)C[C@H](c2ccncc2NC(=O)c2ccc(F)c3cc(-c4c(F)cccc4F)cnc23)C1`: the IC50 in test [1] is below 10 nM; in test [2], below 10 nM; in test [3] it was below 100 nM.
